Source: a melting point compilation (Tetko et al.; mined from patent text by program, amines drawn as free bases though some values may be those of a salt)

melting point | SMILES
138 to 139 °C | CS(=O)Cc1nnc(-c2ccc3occ(-c4cccc(OC(F)(F)F)c4)c3c2)o1 (stereo not given)
192 to 193 °C | Cc1nc(Cc2ccc(NC(=O)/C=C/c3cnn(C)c3-c3ccc(F)cc3)cc2)cs1
144 to 145 °C | FC(F)(F)c1cccc(N2CCC(N=Cc3ccc[nH]3)=N2)c1
100 to 102 °C | Cn1c(N2CCOCC2)nc(C(=O)NCc2ccc(Cl)c(Cl)c2)c(O)c1=O
193 to 194 °C | CC(=O)Oc1cccc2c(-c3ccccc3)c3cccc(OC(C)=O)c3c(OC(C)=O)c12
171 to 172 °C | CC(=O)N1OCC(=O)N(CCl)C1c1ccccc1 (stereo not given)
140 to 141 °C | CC(C)OC1(C(=O)O)C=C(Cl)C=C(Cl)C1 (stereo not given)
147 to 149 °C | N#Cc1cnn2c1N(C(=O)CN1CCN(C(=O)Nc3cccc(C(F)(F)F)c3)CC1)CC=C2c1cccc(C(F)(F)F)c1
140 to 142 °C | Cc1cc(-n2ccc(O)cc2=O)sc1C(=O)NCc1cccc(F)c1
247 to 248 °C | CN1CCN(C=Nc2ccc3nnc(-c4ccc([N+](=O)[O-])o4)n3n2)CC1
106 to 107 °C | COc1cc(-c2nc(C)ncc2Br)c(F)cc1Cl
105 to 108 °C | CCOC(=O)c1cnc2nc(N3CCN(C)CC3)ncc2c1OCC
279 to 283 °C | Cn1ncc2[nH]c3ccc(Cc4cccc([N+](=O)[O-])c4)cc3c(=O)c21
227 to 230 °C | C=C(C)C(=O)Nc1cccc(C(=O)NC2=NN(c3c(Cl)cc(Cl)cc3Cl)C(=O)C2c2cc[nH]n2)c1 (stereo not given)
166 °C | COc1ccc2nccc(CCC[C@@H]3CCN(CC#Cc4ccccc4)C[C@@H]3C(=O)O)c2c1
242 to 244 °C | CCCC(=O)c1cnc2ccc(O)cc2c1Nc1ccc(O)cc1C
63 °C | O=C(c1cccs1)c1cnn2c(-c3cccc(-c4ccn(CCN5CCCC5)n4)c3)ccnc12
62.5 to 64.3 °C | N#Cc1ccc(CCC2CCC(=O)CC2)cc1
80 to 81 °C | COC(=O)CCc1ncc2c(c1C(=O)OC)CCO2
222 to 224 °C | Cc1c(C)c2c(c(C)c1NC(=O)c1cccs1)C(c1ccc(C(C)C)cc1)C(C)(C)O2 (stereo not given)
76 to 80 °C | CC(C)(C)OC(=O)NCC(=O)SCC(Cc1ccccc1)C(=O)Nc1cccc(C(=O)O)c1 (stereo not given)
145 to 146 °C | FC(F)(F)c1cccc(N2CCN(Cc3cn4cc(Cl)ccc4n3)CC2)c1
> 300 °C | Nc1[nH]nc(-c2ccc(Cl)cc2)c1-c1ccncc1
108 to 110 °C | O=C1CCCCN1c1ccc(I)cc1
248 to 250 °C | O=C(O)c1cccc(-c2nc3cc(N4CCCC4)ccc3o2)c1

melting point | SMILES
43 °C | Clc1cc(Cl)c2c(CCBr)coc2c1
124 to 125 °C | Cc1cc(-c2nc3cc(OCCOC(C)C)cc(OCCOC(C)C)c3c(=O)[nH]2)cc(C)n1
83 to 85 °C | CC(=O)c1cccc2c1NCC2
178 to 181 °C | COC(=O)CCc1ccc(Oc2ccc(-c3ccc(C(=N)N)cc3)nn2)cc1
140 °C | COc1ccc(C=CC(=O)N2CCN(c3nc(N)c4cc(OC)c(OC)cc4n3)CC2)cc1OC
87 to 90 °C | CC(C)(OC(=O)C1C2CCC(C2)C1C(F)(F)F)C(F)(F)F (stereo not given)
188 °C | Fc1ccc(-c2cc(C(F)(F)F)n3cnc(-c4cccnc4)c3n2)cc1Cl
187 to 190 °C | Cc1nc2n(c1CO)-c1ccccc1N(C)c1ccccc1-2
202 to 204 °C | Cn1ncc2c1-c1c(Oc3ccc4c(c3)OCO4)sc(C(=O)NCc3ccncc3)c1CC2
134 to 136 °C | CC(=O)C(=Cc1cc(Cl)c(S(C)(=O)=O)c(Cl)c1)C(C)=O
72 to 73 °C | Cc1ccsc1-c1nc(COc2ccc(CCCn3ccnc3)cc2)co1
213 °C | N=C(NO)c1ncn2c(C(F)(F)F)cc(-c3ccc(C(F)(F)F)cc3)nc12
211 °C | O=C1CCCc2nc(N3CCN(Cc4ccccc4)CC3)ncc2N1
118 to 119 °C | O=C1C[C@@H]2[C@@H](/C=C/[C@H](CCc3ccccc3)OC3CCCCO3)[C@H](OC(=O)c3ccc(-c4ccccc4)cc3)C[C@@H]2O1 (stereo not given in full)
179 to 181 °C | Cc1ccc(C(=O)NC(NC(=S)Nc2cccc(C(F)(F)F)c2F)C(F)(F)F)cc1 (stereo not given)
209 to 211 °C | COc1ccc(SC2(Sc3ccc(OC)cc3)CCC3C4CCC5=CC(=O)C=CC5(C)C4(F)C(O)CC32C)cc1 (stereo not given)
178 to 181 °C | O=C(O)C1=Cc2cc(CO)ccc2OC1CC(F)(F)F (stereo not given)
93 to 94 °C | Clc1ncc(Cl)c(NC2CCCCC2)n1
70 °C | C=CCC1C2CCC(C2)C1NC(=O)OCc1ccccc1 (stereo not given)
128 to 129 °C | CC(=O)N(O)C(C)c1ccc(C#Cc2cccs2)cc1 (stereo not given)
202 to 205 °C | Cc1cc2c(cc1Sc1ccc(C(=O)O)c(Cl)c1)C(C)(C)CCC2(C)C
138 to 140 °C | CCOC(=O)c1c(O)c2ccc(C)nc2n(CC)c1=O
198 to 200 °C | COc1ccccc1NC(=O)C1=C(O)c2ccc3ccccc3c2S(=O)(=O)N1C
215 to 216 °C | O=C(O)CN1C(=O)C(NC(=O)Nc2cccc3ccccc23)CCc2ccccc21 (stereo not given)
84 to 86 °C | C=C(Cn1ccnc1)c1ccccc1OCc1ccc(Cl)cc1Cl

melting point | SMILES
107 to 108 °C | CC(C)COc1ccc(COc2ccc(CC(=O)O)cc2Cl)cc1
135 to 138 °C | COc1cc(C)cc(C2=NC(C)(C)CO2)c1N
68.5 to 69.5 °C | CC(CCCCCCCCCC(=O)O)CC(=O)O (stereo not given)
131 to 132 °C | O=C(O)CCCCCc1nn(-c2ccc([N+](=O)[O-])cc2)c2c1CCC2
69 to 70 °C | CCOC(=O)CNCc1c(N)ccc(N2CCCC2)c1Cl
169 to 171 °C | COc1cc(N[C@H]2CC[C@H](NC3CCCC3)CC2)c(Cl)cc1C(N)=O
277 to 279 °C | COc1cc(N)c(Cl)cc1C(=O)NC1CNCCn2c1nc(-c1ccncn1)cc2=O (stereo not given)
78 to 79 °C | N#Cc1ccc(C2CCN(Cc3ccccc3)C2)cc1 (stereo not given)
261 to 263 °C | Cc1nc(-n2ccc(OCc3ccc(C(F)(F)F)o3)cc2=O)sc1C(=O)O
> 300 °C | O=C(NCc1ccn(-c2cc3nc(C(=O)O)c(=O)[nH]c3cc2C(F)(F)F)c1)Nc1ccccc1
111 °C | CC(=O)O[C@H]1CS[C@H](C(=O)O)O1 (relative stereo)
> 300 °C | Cc1nn(-c2ccccn2)c2[nH]c3ccc(C(=O)O)cc3c(=O)c12
137 to 138 °C | COc1ccc2c(c1)C(C(=O)N(Cc1ccc(C#N)cc1)c1ccc(C(C)C)cc1)CCC2 (stereo not given)
75 to 76.5 °C | CC(=O)c1ccc(OCC=C(C)CSCc2ccccc2)cc1
125 °C | O=C(O)C=NNc1ccc(C(F)(F)F)cc1
106 to 108 °C | COc1ccc(CNc2nc(NC[C@@H](C)O)nc3c2ncn3C(C)C)c(O)c1
133 to 135 °C | COc1ccc(C2=NN(C(c3ccccc3)c3ccccc3)C(=O)[C@H]3CCCC[C@@H]23)cc1OC (relative stereo)
81 to 82 °C | CC1(C)CCCSc2cc(Br)ccc21
183 to 184 °C | Cc1c([N+](=O)[O-])ccc(N)c1C(=O)O
155 to 157 °C | COc1cc2c(cc1OC)C(C#N)N(C(=O)c1ccccc1)C=C2 (stereo not given)
138 to 139 °C | OCC(O)CN1CCN(c2nccs2)CC1 (stereo not given)
155 to 157 °C | CN1CCN(c2ccc(Nc3ncc4ccc(Sc5ccccc5)n4n3)cc2)CC1
156 to 158 °C | O=C(O)CNC(=O)c1ccc([N+](=O)[O-])cc1F
195 to 197 °C | O=C(O)c1ccc(Sc2ccc(OCc3ccc4ccccc4n3)cc2)cc1
173 to 175 °C | N#Cc1cc2c(c(-c3ccccc3Cl)c1)OC(CN)C2 (stereo not given)

melting point | SMILES
142 °C | COc1cc(C=CC(=O)OC2C=C(C)C(=O)CC(C)(C)C2O)ccc1O (stereo not given)
66 to 68 °C | COc1cc(-c2ccc(Cl)cc2)ccc1COCCc1cccc(NS(=O)(=O)C(F)(F)F)c1
164 to 166 °C | CS(=O)CC(=O)c1cc(-c2ccccc2)on1 (stereo not given)
64 to 66 °C | O=C1CCCc2ccc3ccccc3c21
71 °C | NCCCCCCc1ccc(Cl)cc1
48.5 to 50 °C | CC(=O)C(=[N+]=[N-])C(=O)CCCCCCCCCc1ccc(S(=O)(=O)Cl)cc1
194 to 196 °C | CC(=O)NC[C@H]1CN(c2ccc(N3CCC(=C(C#N)n4cncn4)CC3)c(F)c2)C(=O)O1
139 to 141 °C | CCOC(=O)C1=C(C)NC(=S)N(C(=O)c2ccc([N+](=O)[O-])cc2)C1c1cccc([N+](=O)[O-])c1 (stereo not given)
166 to 167 °C | Cc1c(Cl)cccc1S(=O)(=O)Nc1ccc2nccnc2c1
190 °C | N#Cc1ccc(N(Cc2ccc3c(c2)CNS(=O)(=O)O3)n2ccnc2)cc1
66 to 70 °C | CCN(CC)c1nc(C(F)(F)C(F)(F)F)nn1-c1c(Cl)cc(Cl)cc1Cl
164 to 165 °C | CC(C)(C)c1cc(C2SCC(=O)N2CCC(=O)O)cc(C(C)(C)C)c1O (stereo not given)
185 to 190 °C | CC1=C(C)C(Cc2csc3ccccc23)N(C)C=C1 (stereo not given)
130 to 131 °C | CC(C)C(=O)NCCCCN1CCN(c2csc3cc(F)ccc23)CC1
124 to 126 °C | O=C1N(Cc2ccccc2C(F)(F)F)c2ccccc2C12COc1cc3[nH]ncc3cc12 (stereo not given)
148 to 151 °C | NCC(=O)N(C(=O)C(O)c1ccccc1)c1ccccc1 (stereo not given)
202 to 203 °C | Cc1nc(-c2ccc(C(F)(F)F)cc2)sc1CSc1ccc(CC(=O)O)cc1
91 °C | Cc1ccc(Nc2ncc(C=Cc3cccnc3)c3ccccc23)cc1Br
126 to 127 °C | O=C(CCCS(=O)c1ccc(Cl)cc1)NO (stereo not given)
165 to 167 °C | COc1cc(OC)nc(NC(=O)NS(=O)(=O)N=CN(CSC)OC)n1
151 to 156 °C | COc1ccc(CN2C(=O)c3c(-c4ccccc4Cl)cc4c(c3C2=O)c2cc(OC)ccc2n4CC(O)CO)c(OC)c1 (stereo not given)
144 to 145 °C | ClC1=Nc2ccccc2Oc2c1csc2Cl
110 to 120 °C | CC(=O)Nc1cc([N+](=O)[O-])ccc1OCCCN

SMILES | melting point
COC(=O)c1ccc(-c2c[nH]c(-c3ccc4c(c3)C(C)(C)CCC4(C)C)c2)cc1 | 174 to 175 °C
C[C@@H]1N(C)C(C)(C)CO[C@@]1(O)c1ccc(Cl)cc1 | 167 to 169 °C
